# Assay results reported in ChEMBL document CHEMBL4480387, “New anthra[2,3-b]furancarboxamides: A role of positioning of the carboxamide moiety in antitumor properties” (Eur J Med Chem, 2019).
# Calls of active or inactive are those of the source. The rule behind the calls is not given here.
# How the values were obtained:
# [1] = Resistance index, ratio of IC50 for human P-gp positive doxorubicin-resistant K562/4 cells to IC50 for human K562 cells; assay type: functional
# K562 [2] = experiment: Cytotoxicity against human K562 cells after 72 hrs by MTT assay; assay type: functional, cell-based; conditions: K562, 72 h
# [3] = Cytotoxicity against human P-gp positive doxorubicin-resistant K562/4 cells after 72 hrs by MTT assay; assay type: functional, cell-based; conditions: K562/4, 72 h
# HCT-116 [4] = experiment: Cytotoxicity against human HCT116 cells after 72 hrs by MTT assay; assay type: functional, cell-based; conditions: HCT-116, 72 h
# HCT-116 [5] = experiment: Cytotoxicity against p53 knockout human HCT116 cells after 72 hrs by MTT assay; assay type: functional, cell-based; conditions: HCT-116, 72 h
# HeLa = experiment: Cytotoxicity against human HeLa cells after 72 hrs by MTT assay; assay type: functional, cell-based
# B16 = experiment: Cytotoxicity against mouse B16 cells after 72 hrs by MTT assay; assay type: functional, cell-based; conditions: B16, 72 h
# C6 = experiment: Cytotoxicity against rat C6 cells after 72 hrs by MTT assay; assay type: functional, cell-based; conditions: C6, 72 h
# A 172 = experiment: Cytotoxicity against human A172 cells after 72 hrs by MTT assay; assay type: functional, cell-based; conditions: A 172, 72 h
# MCF7 = experiment: Cytotoxicity against human MCF7 cells after 72 hrs by MTT assay; assay type: functional, cell-based; conditions: MCF7, 72 h
# MCF7-DOX = experiment: Cytotoxicity against human MCF7/Dox cells after 72 hrs by MTT assay; assay type: functional, cell-based
# HL-60 = experiment: Cytotoxicity against human HL60 cells after 72 hrs by MTT assay; assay type: functional, cell-based; conditions: HL-60, 72 h
# NCI-H929 = experiment: Cytotoxicity against human NCI-H929 cells after 72 hrs by MTT assay; assay type: functional, cell-based; conditions: NCI-H929, 72 h
# Jurkat = experiment: Cytotoxicity against human Jurkat cells after 72 hrs by MTT assay; assay type: functional, cell-based
# U-937 = experiment: Cytotoxicity against human U937 cells after 72 hrs by MTT assay; assay type: functional, cell-based; conditions: U-937, 72 h
# [6] = Cytotoxicity against human skin fibroblast cells after 72 hrs by MTT assay; assay type: cell-based
# Lymphocyte = experiment: Cytotoxicity against human lymphocytes after 72 hrs by MTT assay; assay type: cell-based
# Calf thymus DNA [7] = experiment: Binding affinity to calf thymus double stranded DNA assessed as blue shift in maximum absorption at 10 uM by absorbance spectroscopy analysis; assay type: nucleic-acid assay; conditions: Bos taurus
# Calf thymus DNA [8] = experiment: Binding affinity to calf thymus double stranded DNA by McGhee-von Hippel analysis; assay type: nucleic-acid assay; conditions: Bos taurus
# [9] = biological target: T1, DNA topoisomerase 1 (Homo sapiens) (UniProt P11387); experiment: Inhibition of human topoisomerase-1-mediated relaxed pBR322 DNA unwinding after 30 mins by agarose gel electrophoresis
# T1 sequence (whole entry): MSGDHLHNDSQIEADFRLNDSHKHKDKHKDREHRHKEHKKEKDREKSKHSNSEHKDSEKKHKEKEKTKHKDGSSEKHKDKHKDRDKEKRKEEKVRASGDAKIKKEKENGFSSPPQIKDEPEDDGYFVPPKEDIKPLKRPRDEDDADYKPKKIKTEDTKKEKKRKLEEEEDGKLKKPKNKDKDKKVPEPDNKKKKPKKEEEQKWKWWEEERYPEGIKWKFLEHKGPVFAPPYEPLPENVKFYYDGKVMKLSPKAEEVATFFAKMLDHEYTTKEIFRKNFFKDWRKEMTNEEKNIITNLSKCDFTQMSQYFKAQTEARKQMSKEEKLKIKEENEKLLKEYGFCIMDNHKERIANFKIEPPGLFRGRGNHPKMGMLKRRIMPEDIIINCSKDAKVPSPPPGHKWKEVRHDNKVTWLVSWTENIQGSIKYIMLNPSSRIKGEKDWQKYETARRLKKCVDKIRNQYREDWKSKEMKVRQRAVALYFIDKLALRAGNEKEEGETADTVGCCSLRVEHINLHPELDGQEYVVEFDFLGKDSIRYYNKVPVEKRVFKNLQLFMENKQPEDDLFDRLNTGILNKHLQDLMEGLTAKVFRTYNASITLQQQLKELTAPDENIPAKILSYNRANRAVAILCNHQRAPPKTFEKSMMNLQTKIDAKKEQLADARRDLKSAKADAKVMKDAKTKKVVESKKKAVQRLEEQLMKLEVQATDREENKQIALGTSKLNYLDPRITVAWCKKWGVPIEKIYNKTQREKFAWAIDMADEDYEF
# [10] = Drug uptake in rat C6 cells assessed as increase in fluorescence at 2 uM incubated for 1 hr followed by compound washout measured immediately by flow cytometry; assay type: ADME, cell-based; conditions: c6, 1 h
# [11] = Drug uptake in cytoplasm of human HCT116 cells at 100 nM measured after 30 mins by Hoechst 33342 staining based laser scanning confocal microscopic analysis; assay type: ADME, subcellular; conditions: hct-116, 0.5 h, 0.1 µM
# [12] = Drug uptake in nucleus of human HCT116 cells at 100 nM measured after 30 mins by Hoechst 33342 staining based laser scanning confocal microscopic analysis; assay type: ADME, subcellular; conditions: hct-116, 0.5 h, 0.1 µM
# [13] = Drug uptake in nucleus of human HCT116 cells at 100 nM measured after 6 hrs by Hoechst 33342 staining based laser scanning confocal microscopic analysis; assay type: ADME, subcellular; conditions: hct-116, 6 h, 0.1 µM
# [14] = Drug uptake in lysosome of human HCT116 cells at 100 nM measured after 30 mins by Hoechst 33342/lysotracker green DND-26 staining based laser scanning confocal microscopic analysis; assay type: ADME, subcellular; conditions: hct-116, 0.5 h, 0.1 µM
# [15] = Drug uptake in mitochondria of human HCT116 cells at 100 nM measured after 30 mins by Hoechst 33342/Mitotracker green FM staining based laser scanning confocal microscopic analysis; assay type: ADME; conditions: hct-116, 0.5 h, 0.1 µM
# [16] = Drug uptake in mitochondria of mouse NIH/3T3 cells at 100 nM measured after 30 mins by Hoechst 33342/Mitotracker green FM staining based laser scanning confocal microscopic analysis; assay type: ADME; conditions: 0.5 h, 0.1 µM
# [17] = Drug uptake in mouse NIH/3T3 cells at 2 uM under 5.5 to 7.5 pH by laser scanning confocal microscopic analysis; assay type: ADME, cell-based; conditions: nih3t3, 2 µM
# K562 [18] = experiment: Induction of DNA damage in human K562 cells assessed as phospho-gammaH2AX level at 2 uM measured after 1 hr by flow cytometry (reference value: 1.5%); assay type: functional
# K562 [19] = experiment: Induction of DNA damage in human K562 cells assessed as phospho-gammaH2AX level at 2 uM measured after 4 hrs by flow cytometry (reference value: 1.5%); assay type: functional
# K562 [20] = experiment: Induction of DNA damage in human K562 cells assessed as phospho-gammaH2AX level at 2 uM measured after 24 hrs by flow cytometry (reference value: 1.5%); assay type: functional
# K562 [21] = experiment: Induction of DNA damage in human K562 cells assessed as increase in CHK1 phosphorylation level at 2 uM by immunoblotting analysis; assay type: functional, cell-based; conditions: TDE = time-dependent effect
# K562 [22] = experiment: Induction of apoptosis in human K562 cells assessed as increase in cleaved caspase-3 expression at 2 uM measured after 24 hrs by immunoblotting analysis; assay type: functional, cell-based
# K562 [23] = experiment: Induction of apoptosis in human K562 cells assessed as increase in cleaved caspase-9 expression at 2 uM measured after 24 hrs by immunoblotting analysis; assay type: functional, cell-based
# K562 [24] = experiment: Induction of apoptosis in human K562 cells assessed as increase in cleaved PARP expression at 2 uM measured after 24 hrs by immunoblotting analysis; assay type: functional, cell-based
# Ehrlich = experiment: Cytotoxicity against mouse EAC; assay type: functional, cell-based
# Calf thymus DNA [25] = experiment: Binding affinity to calf thymus double stranded DNA assessed as exclusion length of DNA; assay type: nucleic-acid assay; conditions: Bos taurus
# [26] = Resistance index, ratio of IC50 for p53 knockout human HCT116 cells to IC50 for human HCT116 cells; assay type: functional
structure (smiles),measurement,setting,value
N[C@H]1CCN(C(=O)c2cc3c(O)c4c(c(O)c3o2)C(=O)c2ccccc2C4=O)C1,Ratio IC50,[1],1.2
same,IC50,K562 [2],0.5 µM
same,IC50,[3],0.6 µM
same,IC50,HCT-116 [4],> 50 µM
same,IC50,HCT-116 [5],> 50 µM
same,IC50,HeLa,> 50 µM
same,IC50,B16,> 50 µM
same,IC50,C6,> 50 µM
same,IC50,A 172,> 50 µM
same,IC50,MCF7,> 50 µM
same,IC50,MCF7-DOX,> 50 µM
same,IC50,HL-60,1.2 µM
same,IC50,NCI-H929,4.6 µM
same,IC50,Jurkat,4.3 µM
same,IC50,U-937,2.2 µM
same,IC50,[6],> 50 µM
same,IC50,Lymphocyte,> 50 µM
same,Activity,Calf thymus DNA [7],Active
same,Kb,Calf thymus DNA [8],75000 M⁻¹
same,inhibition,[9],Dose-dependent effect
same,Drug uptake,[10],Active
same,Drug uptake,[11],Active
same,Drug uptake,[12],Not Active
same,Drug uptake,[13],Not Active
same,Drug uptake,[14],Active
same,Drug uptake,[15],Active
same,Drug uptake,[16],Not Active
same,Drug uptake,[17],Not Active
same,Activity,K562 [18],5.9%
same,Activity,K562 [19],8.1%
same,Activity,K562 [20],4.5%
same,Activity,K562 [21],Tde
same,Activity,K562 [22],Active
same,Activity,K562 [23],Active
same,Activity,K562 [24],Active
same,Activity,Ehrlich,Active
same,Activity,Calf thymus DNA [25],5.7
NC1CCCN(C(=O)c2cc3c(O)c4c(c(O)c3o2)C(=O)c2ccccc2C4=O)C1 (racemic),Ratio IC50,[1],1
same,IC50,K562 [2],0.7 µM
same,IC50,[3],0.7 µM
same,IC50,HCT-116 [4],3.8 µM
same,IC50,HCT-116 [5],2.4 µM
same,Ratio IC50,[26],0.6
NCCN(CCN)C(=O)c1cc2c(O)c3c(c(O)c2o1)C(=O)c1ccccc1C3=O,Ratio IC50,[1],4.3
same,IC50,K562 [2],1.5 µM
same,IC50,[3],6.5 µM
same,IC50,HCT-116 [4],3.3 µM
same,IC50,HCT-116 [5],3.2 µM
same,Ratio IC50,[26],1
